Calls of active or inactive are those of the source. No cut-off for these calls is given here.
Experiments:
[1] = Cytotoxicity against mouse BV-2 cells assessed as cell viability at 5 uM incubated for 24 hrs by MTT assay relative to control; format: toxicity, cell-based; details: read-out: Activity
[2] = Inhibition of LPS-induced NO production in mouse BV-2 cells at 10 uM incubated for 24 hrs by Griess reagent based method relative to control; format: functional
[3] = Inhibition of LPS-induced NO production in mouse BV-2 cells at 5 uM incubated for 24 hrs by Griess reagent based method relative to control; format: functional
[4] = Cytotoxicity against mouse BV-2 cells assessed as cell viability at 10 uM incubated for 24 hrs by MTT assay relative to control; format: toxicity, cell-based; details: read-out: Activity
[5] = Inhibition of LPS-induced NO production in mouse BV-2 cells incubated for 24 hrs by Griess reagent based method; format: functional, cell-based; details: BV-2, 24 h
BV-2 [6] = assay: Inhibition of NF-kappaB activation in LPS-stimulated mouse BV-2 cells assessed as reduction in phosphorylated p65 level pretreated for 30 mins followed by LPS stimulation by Western blot analysis; format: cell-based; details: dose 5-20 µM
BV-2 [7] = assay: Antiinflammatory activity in LPS-induced mouse BV-2 cells assessed as reduction in IL-1beta mRNA expression pretreated for 1 hr followed by LPS stimulation and measured after 6 hrs by RT-PCR analysis; format: functional, cell-based; details: dose 5-20 µM, time 7.0 hrs
BV-2 [8] = assay: Antiinflammatory activity in LPS-induced mouse BV-2 cells assessed as reduction in iNOS protein expression pretreated for 1 hr followed by LPS stimulation and measured after 18 hrs by Western blot analysis; format: functional, cell-based; details: dose 5-20 µM, time 19.0 hrs
BV-2 [9] = assay: Antiinflammatory activity in LPS-induced mouse BV-2 cells assessed as reduction in IL-6 mRNA expression pretreated for 1 hr followed by LPS stimulation and measured after 6 hrs by RT-PCR analysis; format: functional, cell-based; details: dose 5-20 µM, time 7.0 hrs
BV-2 [10] = assay: Antiinflammatory activity in LPS-induced mouse BV-2 cells assessed as reduction in iNOS mRNA expression pretreated for 1 hr followed by LPS stimulation and measured after 6 hrs by RT-PCR analysis; format: functional, cell-based; details: dose 5-20 µM, time 7.0 hrs
[11] = biological target: c-Jun N-terminal kinase (Mus musculus) (UniProt Q91Y86+Q9WTU6+Q61831); assay: Inhibition of LPS-induced JNK phosphorylation in mouse BV-2 cells at 5 to 20 uM pretreated for 30 mins followed by LPS stimulation by Western blot analysis; format: cell-based; details: dose 5-20 µM
BV-2 [12] = assay: Antiinflammatory activity in LPS-induced mouse BV-2 cells assessed as reduction in COX-2 protein expression pretreated for 1 hr followed by LPS stimulation and measured after 18 hrs by Western blot analysis; format: functional, cell-based; details: dose 5-20 µM, time 19.0 hrs
BV-2 [13] = assay: Inhibition of LPS-induced ERK phosphorylation in mouse BV-2 cells pretreated for 30 mins followed by LPS stimulation by Western blot analysis; format: cell-based; details: dose 5-20 µM
BV-2 [14] = assay: Antiinflammatory activity in LPS-induced mouse BV-2 cells assessed as reduction in COX-2 mRNA expression pretreated for 1 hr followed by LPS stimulation and measured after 6 hrs by RT-PCR analysis; format: functional, cell-based; details: dose 5-20 µM, time 7.0 hrs
[15] = biological target: MAP kinase p38 (Mus musculus) (UniProt P47811+O08911+Q9WUI1+Q9Z1B7); assay: Inhibition of LPS-induced p38 phosphorylation in mouse BV-2 cells at 5 to 20 uM pretreated for 30 mins followed by LPS stimulation by Western blot analysis; format: cell-based; details: dose 5-20 µM
BV-2 [16] = assay: Antiinflammatory activity in LPS-induced mouse BV-2 cells assessed as reduction in TNF-alpha mRNA expression pretreated for 1 hr followed by LPS stimulation and measured after 6 hrs by RT-PCR analysis; format: functional, cell-based; details: dose 5-20 µM, time 7.0 hrs
BV-2 [17] = assay: Inhibition of NF-kappaB activation in LPS-stimulated mouse BV-2 cells assessed as reduction in phosphorylated IkappaB-alpha level pretreated for 30 mins followed by LPS stimulation by Western blot analysis; format: cell-based; details: dose 5-20 µM

c-Jun N-terminal kinase (Mus musculus), sequence (Q61831 whole entry, looked up): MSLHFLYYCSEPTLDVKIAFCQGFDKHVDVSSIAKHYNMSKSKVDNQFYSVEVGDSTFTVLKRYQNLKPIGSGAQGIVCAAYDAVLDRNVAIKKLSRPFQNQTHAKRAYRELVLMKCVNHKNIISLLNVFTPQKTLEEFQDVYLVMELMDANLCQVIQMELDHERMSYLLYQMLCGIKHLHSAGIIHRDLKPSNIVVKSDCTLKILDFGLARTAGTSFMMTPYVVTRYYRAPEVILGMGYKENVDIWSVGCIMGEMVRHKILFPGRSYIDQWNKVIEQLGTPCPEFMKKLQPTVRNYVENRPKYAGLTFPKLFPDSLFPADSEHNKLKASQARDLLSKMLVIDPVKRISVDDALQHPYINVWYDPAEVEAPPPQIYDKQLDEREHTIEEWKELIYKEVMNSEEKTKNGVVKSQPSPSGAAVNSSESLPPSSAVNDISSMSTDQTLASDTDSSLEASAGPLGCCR
c-Jun N-terminal kinase (Mus musculus), sequence (Q91Y86 whole entry, looked up): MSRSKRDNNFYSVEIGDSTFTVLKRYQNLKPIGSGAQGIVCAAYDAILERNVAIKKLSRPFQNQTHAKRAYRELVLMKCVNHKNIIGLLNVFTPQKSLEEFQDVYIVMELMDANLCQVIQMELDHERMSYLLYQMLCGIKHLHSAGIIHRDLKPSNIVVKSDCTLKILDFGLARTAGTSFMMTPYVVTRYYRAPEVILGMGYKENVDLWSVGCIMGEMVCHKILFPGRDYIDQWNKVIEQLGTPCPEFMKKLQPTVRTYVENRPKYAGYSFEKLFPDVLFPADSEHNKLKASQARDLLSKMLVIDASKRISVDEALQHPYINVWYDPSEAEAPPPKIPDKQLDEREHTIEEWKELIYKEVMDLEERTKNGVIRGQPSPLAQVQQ
c-Jun N-terminal kinase (Mus musculus), sequence (Q9WTU6 whole entry, looked up): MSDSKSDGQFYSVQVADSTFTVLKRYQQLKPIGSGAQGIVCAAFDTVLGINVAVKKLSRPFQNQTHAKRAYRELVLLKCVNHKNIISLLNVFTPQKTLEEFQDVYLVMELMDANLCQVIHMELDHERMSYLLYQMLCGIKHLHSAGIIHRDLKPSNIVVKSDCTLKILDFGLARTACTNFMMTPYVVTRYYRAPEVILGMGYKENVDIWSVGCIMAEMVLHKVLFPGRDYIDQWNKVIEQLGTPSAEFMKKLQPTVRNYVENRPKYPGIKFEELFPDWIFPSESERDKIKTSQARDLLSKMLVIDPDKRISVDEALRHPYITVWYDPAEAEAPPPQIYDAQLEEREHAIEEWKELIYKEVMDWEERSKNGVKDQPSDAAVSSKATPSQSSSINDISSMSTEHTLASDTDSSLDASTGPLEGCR

`CCCCCCNC(=O)C(=O)c1nn(-c2ccc(Cl)cc2Cl)c(-c2ccc(Cl)cc2)c1C` gave a viability at 24 h, 5 µM [1] of under 80%.
`Cc1c(C(=O)C(=O)NCC(C)C)nn(-c2ccc(Cl)cc2Cl)c1-c1ccc(Cl)cc1` gave a viability at 24 h, 5 µM [1] of under 80%.
In the case of `Cc1c(C(=O)NN2CCCCC2)nn(-c2ccc(Cl)cc2Cl)c1-c1ccc(Cl)cc1` [RIMONABANT], the inhibition at 10 µM [2] is reported as 43.9%, the inhibition at 5 µM [3] is reported as 21.2% and the viability at 24 h, 10 µM [4] is reported as 91.2%. For the same compound, the viability at 24 h, 5 µM [1] was 99.3% and the IC50 [5] was 16.2 µM.
Compound `CCCCNC(=O)C(=O)c1nn(-c2ccc(Cl)cc2Cl)c(-c2ccc(Cl)cc2)c1C` has a viability at 24 h, 5 µM [1] of under 80%.
In the case of `Cc1c(C(=O)C(=O)N2CCN(C)CC2)nn(-c2ccc(Cl)cc2Cl)c1-c1ccc(Cl)cc1`, the inhibition at 10 µM [2] is reported as 48%, the inhibition at 5 µM [3] is reported as 38.1% and the viability at 24 h, 10 µM [4] is reported as at most 80%. The viability at 24 h, 5 µM [1] was 95.2%.
`Cc1c(C(=O)C(=O)NC2CCCCCC2)nn(-c2ccc(Cl)cc2Cl)c1-c1ccc(Cl)cc1` gave a viability at 24 h, 5 µM [1] of under 80%.
For `Cc1c(C(=O)C(=O)NC2CCCCC2)nn(-c2ccc(Cl)cc2Cl)c1-c1ccc(Cl)cc1`, the inhibition at 5 µM [3] was 87.4%, the viability at 24 h, 10 µM [4] was under 80% and the viability at 24 h, 5 µM [1] was 96.8%.
Compound `Cc1c(C(=O)C(=O)N2CCC(O)CC2)nn(-c2ccc(Cl)cc2Cl)c1-c1ccc(Cl)cc1` has a viability at 24 h, 5 µM [1] of under 80%.
Compound `Cc1c(C(=O)C(=O)NCCCO)nn(-c2ccc(Cl)cc2Cl)c1-c1ccc(Cl)cc1` has a viability at 24 h, 5 µM [1] of under 80%.
With `Cc1c(C(=O)C(=O)NC(C)(C)C)nn(-c2ccc(Cl)cc2Cl)c1-c1ccc(Cl)cc1` the viability at 24 h, 5 µM [1] was under 80%.
Compound `CCCNC(=O)C(=O)c1nn(-c2ccc(Cl)cc2Cl)c(-c2ccc(Cl)cc2)c1C` has a viability at 24 h, 5 µM [1] of under 80%.
In the case of `Cc1c(C(=O)C(=O)NC(C)C)nn(-c2ccc(Cl)cc2Cl)c1-c1ccc(Cl)cc1`, the viability at 24 h, 5 µM [1] is reported as under 80%.
Compound `Cc1c(C(=O)C(=O)NC23CC4CC(CC(C4)C2)C3)nn(-c2ccc(Cl)cc2Cl)c1-c1ccc(Cl)cc1` has a viability at 24 h, 5 µM [1] of under 80%.
`Cc1c(C(=O)C(=O)N2CCCC2)nn(-c2ccc(Cl)cc2Cl)c1-c1ccc(Cl)cc1` gave a viability at 24 h, 5 µM [1] of under 80%.
Compound `Cc1c(C(=O)C(=O)N2CCSCC2)nn(-c2ccc(Cl)cc2Cl)c1-c1ccc(Cl)cc1` has an inhibition at 10 µM [2] of 58.3%, an inhibition at 5 µM [3] of 13.5% and a viability at 24 h, 10 µM [4] of 96.5%. The viability at 24 h, 5 µM [1] was 99.6% and the IC50 [5] was 5.28 µM.
Work on `CCNC(=O)C(=O)c1nn(-c2ccc(Cl)cc2Cl)c(-c2ccc(Cl)cc2)c1C` yielded an inhibition at 5 µM [3] of 63.7%, a viability at 24 h, 10 µM [4] of under 80% and a viability at 24 h, 5 µM [1] of 86.4%.
In the case of `Cc1c(C(=O)C(=O)NC2CCCC2)nn(-c2ccc(Cl)cc2Cl)c1-c1ccc(Cl)cc1`, the viability at 24 h, 5 µM [1] is reported as under 80%.
Compound `Cc1c(C(=O)C(=O)N2CCCCCC2)nn(-c2ccc(Cl)cc2Cl)c1-c1ccc(Cl)cc1` has a viability at 24 h, 5 µM [1] of under 80%.
Compound `Cc1c(C(=O)C(=O)N2CCCCC2)nn(-c2ccc(Cl)cc2Cl)c1-c1ccc(Cl)cc1` has an inhibition at 10 µM [2] of 50.1%, an inhibition at 5 µM [3] of 20.3% and a viability at 24 h, 10 µM [4] of 80%. It also gave a viability at 24 h, 5 µM [1] of 98.2% and an IC50 [5] of 5.82 µM.
Compound `Cc1c(C(=O)C(=O)NN2CCCCC2)nn(-c2ccc(Cl)cc2Cl)c1-c1ccc(Cl)cc1` has a viability at 24 h, 5 µM [1] of under 80%.
Compound `CCCCCCCCNC(=O)C(=O)c1nn(-c2ccc(Cl)cc2Cl)c(-c2ccc(Cl)cc2)c1C` has a viability at 24 h, 5 µM [1] of under 80%.
In the case of `Cc1c(C(=O)C(=O)N2CCOCC2)nn(-c2ccc(Cl)cc2Cl)c1-c1ccc(Cl)cc1`, the inhibition (BV-2 [6]) is reported as “Dose-Dependent Effect”, the Activity (BV-2 [7]) is reported as “Dose-Dependent Effect” and the Activity (BV-2 [8]) is reported as “Dose-Dependent Effect”. For the same compound, the Activity (BV-2 [9]) was “Dose-Dependent Effect”, the Activity (BV-2 [10]) was “Dose-Dependent Effect” and the inhibition [11] was “inactive”. The inhibition at 10 µM [2] was 49.7%, the Activity (BV-2 [12]) was “Dose-Dependent Effect” and the inhibition at 5 µM [3] was 26.1%. The viability at 24 h, 10 µM [4] was 98.7%, the inhibition (BV-2 [13]) was “Dose-Dependent Effect” and the Activity (BV-2 [14]) was “Dose-Dependent Effect”. For the same compound, the viability at 24 h, 5 µM [1] was 98%, the inhibition [15] was “inactive” and the IC50 [5] was 4.71 µM. The Activity (BV-2 [16]) was “Dose-Dependent Effect” and the inhibition (BV-2 [17]) was “Dose-Dependent Effect”.
Compound `CCCCCNC(=O)C(=O)c1nn(-c2ccc(Cl)cc2Cl)c(-c2ccc(Cl)cc2)c1C` has a viability at 24 h, 5 µM [1] of under 80%.
With `Cc1c(C(=O)C(=O)NC2CCC(O)CC2)nn(-c2ccc(Cl)cc2Cl)c1-c1ccc(Cl)cc1` (stereo unspecified) the viability at 24 h, 5 µM [1] was under 80%.
Work on `Cc1c(C(=O)C(=O)NCCO)nn(-c2ccc(Cl)cc2Cl)c1-c1ccc(Cl)cc1` yielded an inhibition at 10 µM [2] of 73.4%, an inhibition at 5 µM [3] of 62.8% and a viability at 24 h, 10 µM [4] of 93.6%. It also gave a viability at 24 h, 5 µM [1] of 94.2% and an IC50 [5] of 5.08 µM.
In the case of `Cc1c(C(=O)C(=O)N2CCNCC2)nn(-c2ccc(Cl)cc2Cl)c1-c1ccc(Cl)cc1`, the viability at 24 h, 5 µM [1] is reported as under 80%.
In the case of `CCCCCCCNC(=O)C(=O)c1nn(-c2ccc(Cl)cc2Cl)c(-c2ccc(Cl)cc2)c1C`, the viability at 24 h, 5 µM [1] is reported as under 80%.

Source: ChEMBL document CHEMBL5223139, “Synthesis of 1-(5-(4-chlorophenyl)-1-(2,4-dichlorophenyl)-4-methyl-1H-pyrazol-3-yl)-2-morpholinoethane-1,2-dione analogues and their inhibitory activities with reduced cytotoxicity in lipopolysaccharide-induced BV2 cells” (Bioorg Med Chem Lett, 2023)
